Values quoted from earlier work as cited in patent US7488755B2, “Derivatives of glycinergic R(+)-2-amino-3-hydroxypropanoic acid” (Prestwick Pharmaceuticals, Inc., priority 2002, dated 2009).

Tests used:
schizophrenic patients = settings: very high oral doses (>30 g/day)
schizophrenia patients = settings: 2 g/day, double-blind clinical trial, also in patients with little response to conventional antipsychotics

NCC(=O)O [glycine]
effect on negative symptoms in schizophrenic patients (schizophrenic patients): improvement in the negative symptoms

N[C@H](CO)C(=O)O [D-serine]
efficacy in the treatment of schizophrenia (schizophrenia patients): effective in the treatment of schizophrenia
